Source: US11389537B2, “Drug delivery system for sustained delivery of bioactive agents” (UPM-Kymmene Corporation, priority 2011, dated 2022)
Values after ≈ are worked out from the molar mass of the structure shown. Where a name gives a salt, the structure may show the parent alone. Read-outs that look alike come from different tables or passages of the source. Each block holds one molecule with its values, some of them ahead of it.

Legend:
[1] = cited from earlier work
[2] = Stability in water solution of tested drugs; type: physicochemical
Source text: (§1) NFC has strong affinity to water, which makes drying it difficult. The residence time in the spray-drying chamber is short and therefore high temperature needs to be used in drying. If lower temperature and/or higher feeding rates were to be used, the wet material would adhere to the chamber. The application of high temperature when spray drying the aqueous suspension of NFC containing an API, increases the risk of degradation of the API during the drying process. High temperature is also a limitation for the choice of the API if its melting point is low (Table 11, showing the values of melting point (Tm), water solubility and stability in water solution of tested drugs). Generally, particles reach a maximum temperature during spraying, which is 15-20° C. below the outlet temperature of a co-current dryer.

[3] = Contact angle between matrix surface and water drop; details: water drop on matrix surface or pure drug
[4] = Solubility in water of tested drugs; type: physicochemical; details: value obtained from testing
Source text: as §1, with “dryer. During the particle production outlet temperatures were in the range of 120-127° C., which was sufficient for successful drying.” for “dryer.”

Structure (SMILES): CC(C)Cc1ccc(C(C)C(=O)O)cc1 (stereo not shown) [Ibuprofen, ibuprofen]
Solubility (50 mM NH4OH) ([1]; 50 mM NH4OH): 6000 µg/mL (≈ 29.1 mM)

Stability in water solution (21° C.) ([2]; pH 7.4, obtained from testing): *pH 7.4 up to 4 days
Contact angle [3]: 76.7
Structure (SMILES): COc1ccc2c(c1)c(CC(=O)O)c(C)n2C(=O)c1ccc(Cl)cc1 [Indomethacin, indomethacin]
Solubility in water [1]: <1 µg/mL
Solubility in water (words) [1]: ↑ with ↑ pH
Solubility in water ([1]; line below '↑ with ↑ pH'): <1000 µg/mL

Stability in water solution (21° C.) ([2]; obtained from testing): *up to 60 days
Structure (SMILES): COCCc1ccc(OCC(O)CNC(C)C)cc1 (stereo not shown) [Metoprolol tartrate, metoprolol tartrate]
Solubility in water (words) [1]: freely

Stability in water solution (21° C.) ([2]; obtained from testing): *up to 30 days
solubility [4]: 6770 µg/mL (≈ 21.9 mM)
Structure (SMILES): CC(C)(C)NCC(O)COc1cccc2c1CC(O)C(O)C2 (stereo not shown) [Nadolol, nadolol]
